Measurements from US20220370453A1 (Storm Therapeutics Ltd, priority 2019, published 2022).

Experiments:
BCDIN3D [1] = target: T1, BCDIN3D (Homo sapiens, UniProt Q7Z5W3); test: BCDIN3D InCellPulse thermal stability assay in transfected A549 cells; type: cell-based; conditions: heat shock 58° C. 15 min
T1 sequence (Q7Z5W3 1-292): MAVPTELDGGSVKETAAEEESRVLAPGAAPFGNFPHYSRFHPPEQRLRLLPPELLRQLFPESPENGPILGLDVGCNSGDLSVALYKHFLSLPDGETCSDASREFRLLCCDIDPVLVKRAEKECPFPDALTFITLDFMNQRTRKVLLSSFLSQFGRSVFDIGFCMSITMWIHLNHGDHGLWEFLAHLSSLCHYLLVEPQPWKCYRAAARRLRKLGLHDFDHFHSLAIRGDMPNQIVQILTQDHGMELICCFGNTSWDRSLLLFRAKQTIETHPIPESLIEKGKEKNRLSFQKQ
Summary of the method: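 A549 cells transiently expressing BCDIN3D N-terminally fused to ePL ProLabel tag, 1500 cells/well, pre-incubated 1 h at 37 °C with compound (0.6% DMSO). Heat shock 58 °C for 15 min; remaining soluble fusion detected by split β-galactosidase complementation luminescence.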

BCDIN3D [2] = target: T1, BCDIN3D; test: BCDIN3D IC50 RFMS (RapidFire) assay with mini-helix; type: biochemical; conditions: 25 nM enzyme
Summary of the method: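 25 nM enzyme preincubated 10 min at room temperature with compound (1% DMSO) in 25 mM Tris pH 8.0, 10 mM DTT, 1 mM EDTA, 0.03% BSA. Reaction started with 0.2 μM mini-helix plus 6 μM SAM, run 1 h at 37 °C, quenched with TCA; SAH product quantified by RapidFire MS against isotopic SAH standards.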

[3] = transiently transfected A549 cells
[4] = mini-helix substrate 0.2 μM, SAM 6 μM
[5] = A549 cells transiently transfected with ePL-BCDIN3D, 1 h pre-incubation
[6] = mini-helix 0.2 μM and SAM 6 μM as substrates, 1 hr at 37° C.

For `Cn1ncc2c(NC(C)(C)C)nc(NCC(N)c3ccncc3)nc21` (stereo not shown) [Compound 5.26, N6-[2-amino-2-(4-pyridyl)ethyl]-N4-tert-butyl-1-methyl-pyrazolo[3,4-d]pyrimidine-4,6-diamine], which IC50 (BCDIN3D [1]; [3]) is on record?
The IC50 was 5570 nM.

What about the IC50 (BCDIN3D [2]; [4]) of the same compound?
The IC50 was 3390 nM.

`Cn1ncc2c(NCc3ccc(F)cc3F)nc(NCC(N)c3ccccc3)nc21` (stereo not shown) [Compound 4.04, 6-N-(2-amino-2-phenylethyl)-4-N-[(2,4-difluorophenyl)methyl]-1-methylpyrazolo[3,4-d]pyrimidine-4,6-diamine] was tested. Which IC50 (BCDIN3D [1]; [3]) did it give?
Its IC50 is 820 nM.

What about the IC50 (BCDIN3D [2]; [4]) of the same compound?
Its IC50 is 424 nM.

Which results are given for `CNc1nc(NCC(N)c2cccc(C#N)c2)nc2c1cnn2C` (stereo not shown) [Compound 5.04, 3-[1-Amino-2-[[1-methyl-4-(methylamino)pyrazolo[3,4-d]pyrimidin-6-yl]amino]ethyl]benzonitrile]?
IC50 (BCDIN3D [1]; [3]): 3640 nM; IC50 (BCDIN3D [2]; [4]): 694 nM

Which results are given for `Cn1ncc2c(Nc3ccc(OC(F)(F)F)cc3)nc(NCC3(N)CC3)nc21` [Compound 2.32, 6-N-[(1-aminocyclopropyl)methyl]-1-methyl-4-N-[4-(trifluoromethoxy)phenyl]pyrazolo[3,4-d]pyrimidine-4,6-diamine]?
IC50 (BCDIN3D [1]; [3]): 815 nM; IC50 (BCDIN3D [2]; [4]): 176 nM

What does the source list for `[2H]C([2H])([2H])n1ncc2c(NC(C)(C)C)nc(NCC(N)c3ccccc3F)nc21` (stereo not shown) [Compound 5.14, N6-[2-amino-2-(2-fluorophenyl)ethyl]-N4-tert-butyl-1-(trideuteriomethyl)pyrazolo[3,4-d]pyrimidine-4,6-diamine]?
IC50 (BCDIN3D [1]; [3]): 429 nM; IC50 (BCDIN3D [2]; [4]): 294 nM

Which results are given for `Cn1ncc2c(N3CCCC3)nc(NCC(N)c3ccccc3)nc21` (stereo not shown) [Compound 4.48, N′-(1-methyl-4-pyrrolidin-1-ylpyrazolo[3,4-d]pyrimidin-6-yl)-1-phenylethane-1,2-diamine]?
IC50 (BCDIN3D [1]; [3]): 7400 nM; IC50 (BCDIN3D [2]; [4]): 3860 nM

How did the IC50 (BCDIN3D [1]; [3]) turn out when `Cn1ncc2c(Nc3ccc(F)cc3Cl)nc(NCC3(N)CC3)nc21` [Compound 2.14, 6-N-[(1-aminocyclopropyl)methyl]-4-N-(2-chloro-4-fluorophenyl)-1-methylpyrazolo[3,4-d]pyrimidine-4,6-diamine] was run?
Its IC50 is 9590 nM.

And the IC50 (BCDIN3D [2]; [4])?
Its IC50 is 5960 nM.

`CC1CC1CNc1nc(NC[C@H](N)c2ccccc2)nc2c1cnn2C` (stereo partly drawn) [Compound 4.58, N6-[(2R)-2-amino-2-phenyl-ethyl]-1-methyl-N4-[(2-methylcyclopropyl)methyl]pyrazolo[3,4-d]pyrimidine-4,6-diamine] was tested. Which IC50 (BCDIN3D [1]; [3]) did it give?
The IC50 was 184 nM.

What about the IC50 (BCDIN3D [2]; [4]) of the same compound?
The IC50 was 70.4 nM.

Which IC50 (BCDIN3D [1]; [3]) does the source give for `Cn1ncc2c(Nc3ccc(C(F)(F)F)cc3)nc(NCC(N)c3ccccn3)nc21` (stereo not shown) [Compound 5.03, 6-N-(2-amino-2-pyridin-2-ylethyl)-1-methyl-4-N-[4-(trifluoromethyl)phenyl]pyrazolo[3,4-d]pyrimidine-4,6-diamine] here?
Its IC50 is 436 nM.

And the IC50 (BCDIN3D [2]; [4])?
Its IC50 is 89.4 nM.

What does the source list for `Cn1ncc2c(Nc3ccc(Cl)c(Cl)c3)nc(NCC(C)(N)c3ccccc3)nc21` (stereo not shown) [Compound 4.13, N6-(2-amino-2-phenyl-propyl)-N4-(3,4-dichlorophenyl)-1-methyl-pyrazolo[3,4-d]pyrimidine-4,6-diamine]?
IC50 (BCDIN3D [1]; [3]): 258 nM; IC50 (BCDIN3D [2]; [4]): 86.6 nM

With `Cc1nn(C)c2nc(NCC(C)(C)N)nc(Nc3cccc(C(F)(F)F)c3)c12` [Compound 1.33, N6-(2-amino-2-methylpropyl)-1,3-dimethyl-N4-[3-(trifluoromethyl)phenyl]-1H-pyrazolo[3,4-d]pyrimidine-4,6-diamine] as the compound, how does the IC50 (BCDIN3D [1]; [5]) read?
Its IC50 is 6460 nM.

And the IC50 (BCDIN3D [2]; [6])?
The IC50 was 4330 nM.

What does the source list for `Cn1ncc2c(NC(C)(C)C)nc(NC[C@H](N)c3ccc(F)cc3)nc21` [Compound 7.18, N6-[(2R)-2-amino-2-(4-fluorophenyl)ethyl]-N4-tert-butyl-1-methyl-1H-pyrazolo[3,4-d]pyrimidine-4,6-diamine]?
IC50 (BCDIN3D [1]; [5]): 410 nM; IC50 (BCDIN3D [2]; [6]): 330 nM

Which IC50 (BCDIN3D [1]; [3]) does the source give for `Cn1ncc2c(NC(C3CC3)C3CC3)nc(NCC(N)c3ccccc3)nc21` (stereo not shown) [Compound 4.57, N6-(2-amino-2-phenyl-ethyl)-N4-(dicyclopropylmethyl)-1-methyl-pyrazolo[3,4-d]pyrimidine-4,6-diamine] here?
Its IC50 is 2720 nM.

What about the IC50 (BCDIN3D [2]; [4]) of the same compound?
The IC50 was 6450 nM.

How did the IC50 (BCDIN3D [1]; [3]) turn out when `Cc1nn(C)c2nc(NCC3(N)CC3)nc(Nc3ccc(C(F)(F)F)cc3)c12` [Compound 2.30, 6-N-[(1-aminocyclopropyl)methyl]-1,3-dimethyl-4-N-[4-(trifluoromethyl)phenyl]pyrazolo[3,4-d]pyrimidine-4,6-diamine] was run?
Its IC50 is 1780 nM.

And the IC50 (BCDIN3D [2]; [4])?
The IC50 was 545 nM.

Which results are given for `Cn1ncc2c(Nc3ccc(C(F)F)cc3)nc(NCC3(N)CC3)nc21` [Compound 2.36, 6-N-[(1-aminocyclopropyl)methyl]-4-N-[4-(difluoromethyl)phenyl]-1-methylpyrazolo[3,4-d]pyrimidine-4,6-diamine]?
IC50 (BCDIN3D [1]; [3]): 1980 nM; IC50 (BCDIN3D [2]; [4]): 138 nM

For `Cn1ncc2c(NC(C)(C)C)nc(NCC(N)C3CCCCC3)nc21` (stereo not shown) [Compound 3.10, N6-(2-amino-2-cyclohexyl-ethyl)-N4-tert-butyl-1-methyl-pyrazolo[3,4-d]pyrimidine-4,6-diamine], which IC50 (BCDIN3D [1]; [3]) is on record?
Its IC50 is 123 nM.

And the IC50 (BCDIN3D [2]; [4])?
The IC50 was 228 nM.

With `Cn1ncc2c(N[C@H]3C[C@@H](F)C3)nc(NC[C@H](N)c3ccccc3)nc21` [Compound 4.90, N6-[(2R)-2-amino-2-phenyl-ethyl]-N4-(3-fluorocyclobutyl)-1-methyl-pyrazolo[3,4-d]pyrimidine-4,6-diamine] as the compound, how does the IC50 (BCDIN3D [1]; [3]) read?
The IC50 was 989 nM.

And the IC50 (BCDIN3D [2]; [4])?
The IC50 was 576 nM.

Which IC50 (BCDIN3D [1]; [3]) does the source give for `Cn1ncc2c(Nc3ccc(OC(F)(F)F)cc3)nc(NCC(C)(N)c3ccccc3)nc21` (stereo not shown) [Compound 4.12, N6-(2-amino-2-phenyl-propyl)-1-methyl-N4-[4-(trifluoromethoxy)phenyl]pyrazolo[3,4-d]pyrimidine-4,6-diamine] here?
Its IC50 is 186 nM.

And the IC50 (BCDIN3D [2]; [4])?
The IC50 was 52.1 nM.

With `Cn1ncc2c(Nc3ccc(F)cc3)nc(NCC3(N)CC3)nc21` [Compound 2.08, 6-N-[(1-aminocyclopropyl)methyl]-4-N-(4-fluorophenyl)-1-methylpyrazolo[3,4-d]pyrimidine-4,6-diamine] as the compound, how does the IC50 (BCDIN3D [1]; [3]) read?
Its IC50 is 2720 nM.

And the IC50 (BCDIN3D [2]; [4])?
Its IC50 is 242 nM.

For `Cn1ncc2c(Nc3ccc(OC(F)F)cc3)nc(NCC(C)(N)c3ccccc3)nc21` (stereo not shown) [Compound 4.15, 6-N-(2-amino-2-phenylpropyl)-4-N-[4-(difluoromethoxy)phenyl]-1-methylpyrazolo[3,4-d]pyrimidine-4,6-diamine], which IC50 (BCDIN3D [1]; [3]) is on record?
Its IC50 is 295 nM.

And the IC50 (BCDIN3D [2]; [4])?
Its IC50 is 69.4 nM.

For `Cn1ncc2c(NC34CC(C#N)(C3)C4)nc(NCC(N)c3ccccc3)nc21` (stereo not shown) [Compound 4.64, 3-[[6-[(2-amino-2-phenylethyl)amino]-1-methylpyrazolo[3,4-d]pyrimidin-4-yl]amino]bicyclo[1.1.1]pentane-1-carbonitrile], which IC50 (BCDIN3D [1]; [3]) is on record?
The IC50 was 949 nM.

What about the IC50 (BCDIN3D [2]; [4]) of the same compound?
Its IC50 is 202 nM.

For `Cn1ncc2c(Nc3ccc(C(F)(F)F)cc3)nc(NC[C@H](N)c3ccccc3)nc21` [Compound 4.22, 6-N-[(2R)-2-amino-2-phenylethyl]-1-methyl-4-N-[4-(trifluoromethyl)phenyl]pyrazolo[3,4-d]pyrimidine-4,6-diamine], which IC50 (BCDIN3D [1]; [3]) is on record?
Its IC50 is 29.9 nM.

And the IC50 (BCDIN3D [2]; [4])?
Its IC50 is 34.1 nM.

Which IC50 (BCDIN3D [1]; [3]) does the source give for `CC[C@H](N)CNc1nc(NCc2ccc(C)c(Cl)c2)c2cnn(C)c2n1` [Compound 3.06, 6-N-[(2S)-2-aminobutyl]-4-N-[(3-chloro-4-methylphenyl)methyl]-1-methylpyrazolo[3,4-d]pyrimidine-4,6-diamine] here?
Its IC50 is 4420 nM.

And the IC50 (BCDIN3D [2]; [4])?
Its IC50 is 3420 nM.

`Cn1ncc2c(Nc3ccc(C(F)(F)F)cc3)nc(NCC(N)C3CCCCC3)nc21` (stereo not shown) [Compound 3.11, N6-(2-amino-2-cyclohexyl-ethyl)-1-methyl-N4-[4-(trifluoromethyl)phenyl]pyrazolo[3,4-d]pyrimidine-4,6-diamine] was tested. Which IC50 (BCDIN3D [1]; [3]) did it give?
The IC50 was 65.4 nM.

And the IC50 (BCDIN3D [2]; [4])?
The IC50 was 101 nM.

Which results are given for `Cn1ncc2c(Nc3ccc(OC(F)F)cc3)nc(NCC3(N)CCCC3)nc21` [Compound 3.20, 6-N-[(1-aminocyclopentyl)methyl]-4-N-[4-(difluoromethoxy)phenyl]-1-methylpyrazolo[3,4-d]pyrimidine-4,6-diamine]?
IC50 (BCDIN3D [1]; [3]): 724 nM; IC50 (BCDIN3D [2]; [4]): 305 nM

For `Cn1ncc2c(Nc3cccc(C(F)F)c3)nc(NCC3(N)CC3)nc21` [Compound 2.07, 6-N-[(1-aminocyclopropyl)methyl]-4-N-[3-(difluoromethyl)phenyl]-1-methylpyrazolo[3,4-d]pyrimidine-4,6-diamine], which IC50 (BCDIN3D [1]; [3]) is on record?
The IC50 was 4100 nM.

And the IC50 (BCDIN3D [2]; [4])?
Its IC50 is 443 nM.

`COc1ccc(Nc2nc(NCC3(N)CC3)nc3c2cnn3C)cc1` [Compound 2.33, 6-N-[(1-aminocyclopropyl)methyl]-4-N-(4-methoxyphenyl)-1-methylpyrazolo[3,4-d]pyrimidine-4,6-diamine] was tested. Which IC50 (BCDIN3D [1]; [3]) did it give?
The IC50 was 3860 nM.

And the IC50 (BCDIN3D [2]; [4])?
The IC50 was 327 nM.

For `Cn1ncc2c(Nc3ccc(OC(F)F)cc3)nc(NC[C@H](N)c3ccccc3)nc21` [Compound 4.16, N6-[(2R)-2-amino-2-phenyl-ethyl]-N4-[4-(difluoromethoxy)phenyl]-1-methyl-pyrazolo[3,4-d]pyrimidine-4,6-diamine], which IC50 (BCDIN3D [1]; [3]) is on record?
The IC50 was 46.3 nM.

And the IC50 (BCDIN3D [2]; [4])?
The IC50 was 40.8 nM.

For `Cn1ncc2c(NC3CCC(F)(F)CC3)nc(NCC(N)c3ccccc3)nc21` (stereo not shown) [Compound 4.68, 6-N-(2-amino-2-phenylethyl)-4-N-(4,4-difluorocyclohexyl)-1-methylpyrazolo[3,4-d]pyrimidine-4,6-diamine], which IC50 (BCDIN3D [1]; [3]) is on record?
Its IC50 is 3240 nM.

What about the IC50 (BCDIN3D [2]; [4]) of the same compound?
The IC50 was 1140 nM.
